Experimental findings from US20220267310A1, “QUINAZOLINE AND CINNOLINE DERIVATIVES AS DNA-PK INHIBITOR” (MEDSHINE DISCOVERY INC., priority 2019, published 2022) are described below.

One assay addresses T1, PI3K (p110α/p85α) (Homo sapiens, UniProt P42336).
T1 construct: Eurofins Pharma Discovery Service (contract assay)
Briefly: PI3K (p110α/p85α) kinase inhibitory activity (HTRF). Format: biochemical. As for the experimental part:
(§1) This experiment was tested at Eurofins Pharma Discovery Service, Reaction Biology Corp. (RBC)
(§2) […] DNA-PK: Mg/ATP; GST-cMyc-p53; EDTA; Ser15 antibody; ATP: 10 μM; biotinylated phosphatidylinositol-3,4,5-triphosphate; GST label GRP1 PH domain; streptavidin and phycocyanin; europium-labelled monoclonal antibody against GST.
(§3) PI3K (p110α/p85α) was incubated in a determination buffer containing phosphatidylinositol 4,5-diphosphate and Mg/ATP (density as required). The reaction was initiated by adding an ATP solution. After incubating at room temperature for 30 min, a termination solution containing EDTA and biotinylated phosphatidylinositol-3,4,5-triphosphate was added to terminate the reaction. Finally, a detection buffer (containing labeled anti-GST monoclonal antibody, PH domain of GRP1 with GST label and streptavidin and phycyanin and […]) was added. Then, the board was read in time-resolved fluorescence mode, and an HTRF signal was measured according to the formula HTRF=10000×(Em665 nm/Em620 nm).

Another assay has as its target T2, PI3K (p110σ/p85α) (Homo sapiens, UniProt O00329).
T2 construct: Eurofins Pharma Discovery Service (contract assay)
Put plainly: PI3K (p110σ/p85α) kinase inhibitory activity (HTRF). In kind it is biochemical.

A further assay concerns the target T3, PI3K (p120γ) (Homo sapiens, UniProt P48736).
T3 construct: Eurofins Pharma Discovery Service (contract assay)
Put plainly: PI3K (p120γ) kinase inhibitory activity (HTRF). Format: biochemical. As for the experimental part:
as §1, §2
as §3, with “(p120γ)” for “(p110α/p85α)”, “a mixture of Mg/ATP.” for “an ATP solution.”

The subject of assay [1] is human small cell lung cancer NCI-H69 xenograft tumor model. Briefly: NCI-H69 xenograft, mono and combination with etoposide, 24-day experiment (Table 8). In kind it is in vivo, BALB/c nude mice. The note with it: for Tumor volume (mm^3) (0th day) / Tumor volume (mm^3) (24th day): average ± SEM, n = 9. The procedure: Experiment example 3: in vivo pharmacodynamics of human small cell lung cancer NCI-H69 cell subcutaneous xenograft tumor BALB/c nude mouse model:
Experimental animals: Female BALB/c nude mice, 6-8 weeks old, weighing 15-22 grams; supplier: Shanghai Linchang Biotechnology Co., LTD. (Linchang, Shanghai)
Human small cell lung cancer NCI-H69 cells (ATCC, item number: HTB-119 and ECACC-95111733) were cultured in vitro in a culture condition of RPMI-1640 medium with 10% fetal bovine serum, 100 U/mL penicillin and 100 μg/mL streptomycin, incubated at 37° C. and 5% CO2. Conventional passage was carried out twice a week. When cell saturation was 80%-90% and the number reaches the requirement, cells were collected, counted and inoculated.
0.2 mL (10×10^6) NCI-H69 cells (with matrix glue, and volume ratio of 1:1) were subcutaneously inoculated into a right back of each mouse, and group administration was initiated when the average tumor volume reaches about 110-120 mm^3.
The tested compound was prepared as a 5 mg/mL clarified solution with 10% DMSO+50% polyethylene glycol 400+40% water as the solvent.
The experimental indicators refers to study whether tumor growth was inhibited, delayed, or cured. Tumor diameter was measured twice a week with a vernier caliper. The calculation formula of the tumor volume was V=0.5a×b^2, and a and b represent the long diameter and short diameter of the tumor, respectively.
The antitumor efficacy of the compound was evaluated by TGI (%) or relative tumor proliferation rate T/C (%). TGI (%) reflects the tumor growth inhibition rate. The calculation of TGI (%): TGI (%)=[1−(average tumor volume at the end of administration of a certain treatment group−average tumor volume at the beginning of administration of the treatment group)/(average tumor volume at the end of treatment in solvent control group−average tumor volume at the beginning of treatment in solvent control group)]×control group.
Relative tumor proliferation rate T/C (%): the calculation formula was as follows: T/C %=[…] TRTV/CRTV group (TRTV: treatment group RTV; CRTV: negative control group RTV). According to results of tumor measurement, Relative Tumor Volume (RTV) was calculated by the formula RTV=Vt/V0, where V0 was the average tumor volume measured in group administration (i.e., d0), and Vt was the average tumor volume measured in a certain single measurement. TRTV and CRTV collect data on the same day.
Statistic analysis includes an average value and a standard error (SEM) of tumor volume at each time point for each group. […] If there was no significant difference in F value, Dunnet (2-sided) method was applied to analysis. All data were analyzed using SPSS 17.0. P<0.05 was considered as having a significant difference.

Where [2] appears, read: 10 mg/kg, BID + etoposide 10 mg/kg, IP.
The mark [3] stands for this setting: 20 mg/kg, QD + etoposide 10 mg/kg, IP.
Where [4] appears, read: 40 mg/kg, PO, BID + etoposide 10 mg/kg, IP.
Setting [5] is: 40 mg/kg, PO, QD + etoposide 10 mg/kg, IP.
[6] abbreviates: 40 mg/kg, PO, QD + etoposide 10 mg/kg, IP, 3-day administration, 4-day withdrawal.

T2 sequence (O00329 whole entry): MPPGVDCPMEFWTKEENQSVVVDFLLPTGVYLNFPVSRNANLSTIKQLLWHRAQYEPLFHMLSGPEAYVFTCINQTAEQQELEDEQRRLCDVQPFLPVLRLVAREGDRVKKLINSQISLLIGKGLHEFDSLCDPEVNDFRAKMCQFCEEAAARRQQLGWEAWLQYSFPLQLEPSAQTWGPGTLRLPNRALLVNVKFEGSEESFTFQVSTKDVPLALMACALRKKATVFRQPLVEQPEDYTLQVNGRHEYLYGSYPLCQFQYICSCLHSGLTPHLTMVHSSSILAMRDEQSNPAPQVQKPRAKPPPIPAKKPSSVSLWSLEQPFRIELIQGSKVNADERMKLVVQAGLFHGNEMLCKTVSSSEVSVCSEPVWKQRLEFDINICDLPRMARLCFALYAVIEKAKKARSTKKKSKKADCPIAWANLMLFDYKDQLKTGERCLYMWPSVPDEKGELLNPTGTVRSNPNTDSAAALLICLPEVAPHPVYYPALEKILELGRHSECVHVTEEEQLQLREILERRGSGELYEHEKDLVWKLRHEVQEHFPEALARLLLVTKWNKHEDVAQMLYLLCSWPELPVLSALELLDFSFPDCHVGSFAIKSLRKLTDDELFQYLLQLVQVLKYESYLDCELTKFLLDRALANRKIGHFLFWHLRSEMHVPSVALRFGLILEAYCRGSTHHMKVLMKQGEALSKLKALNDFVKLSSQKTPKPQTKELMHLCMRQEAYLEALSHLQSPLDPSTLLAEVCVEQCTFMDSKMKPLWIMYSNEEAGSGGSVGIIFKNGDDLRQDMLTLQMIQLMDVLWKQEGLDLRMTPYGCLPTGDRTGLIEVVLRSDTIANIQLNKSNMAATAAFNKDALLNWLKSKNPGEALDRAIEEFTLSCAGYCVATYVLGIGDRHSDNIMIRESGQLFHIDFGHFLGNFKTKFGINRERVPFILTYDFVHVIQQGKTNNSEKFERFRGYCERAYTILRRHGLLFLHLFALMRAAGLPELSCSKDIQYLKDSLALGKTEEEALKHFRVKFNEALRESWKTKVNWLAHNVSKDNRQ
T2 sequence (P27986 whole entry partner): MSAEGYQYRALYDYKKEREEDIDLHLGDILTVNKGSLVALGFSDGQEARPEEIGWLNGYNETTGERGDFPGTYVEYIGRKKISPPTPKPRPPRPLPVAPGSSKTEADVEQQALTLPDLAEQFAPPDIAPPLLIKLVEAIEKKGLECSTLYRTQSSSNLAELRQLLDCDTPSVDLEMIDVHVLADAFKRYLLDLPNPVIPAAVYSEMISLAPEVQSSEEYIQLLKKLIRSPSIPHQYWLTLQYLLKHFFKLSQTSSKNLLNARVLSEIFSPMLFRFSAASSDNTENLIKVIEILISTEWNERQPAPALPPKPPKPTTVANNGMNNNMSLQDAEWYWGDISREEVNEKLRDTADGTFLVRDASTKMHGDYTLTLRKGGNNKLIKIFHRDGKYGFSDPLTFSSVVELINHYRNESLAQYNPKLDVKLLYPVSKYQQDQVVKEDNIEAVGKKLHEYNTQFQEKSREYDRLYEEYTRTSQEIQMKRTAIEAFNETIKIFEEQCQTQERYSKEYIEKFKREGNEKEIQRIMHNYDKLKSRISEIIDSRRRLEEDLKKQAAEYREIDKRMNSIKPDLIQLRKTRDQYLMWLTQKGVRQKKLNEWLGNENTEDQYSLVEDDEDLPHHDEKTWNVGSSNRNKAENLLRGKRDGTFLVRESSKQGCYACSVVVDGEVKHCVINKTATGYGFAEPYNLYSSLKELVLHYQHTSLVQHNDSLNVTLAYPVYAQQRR
T1 sequence (P42336 whole entry, species assumed): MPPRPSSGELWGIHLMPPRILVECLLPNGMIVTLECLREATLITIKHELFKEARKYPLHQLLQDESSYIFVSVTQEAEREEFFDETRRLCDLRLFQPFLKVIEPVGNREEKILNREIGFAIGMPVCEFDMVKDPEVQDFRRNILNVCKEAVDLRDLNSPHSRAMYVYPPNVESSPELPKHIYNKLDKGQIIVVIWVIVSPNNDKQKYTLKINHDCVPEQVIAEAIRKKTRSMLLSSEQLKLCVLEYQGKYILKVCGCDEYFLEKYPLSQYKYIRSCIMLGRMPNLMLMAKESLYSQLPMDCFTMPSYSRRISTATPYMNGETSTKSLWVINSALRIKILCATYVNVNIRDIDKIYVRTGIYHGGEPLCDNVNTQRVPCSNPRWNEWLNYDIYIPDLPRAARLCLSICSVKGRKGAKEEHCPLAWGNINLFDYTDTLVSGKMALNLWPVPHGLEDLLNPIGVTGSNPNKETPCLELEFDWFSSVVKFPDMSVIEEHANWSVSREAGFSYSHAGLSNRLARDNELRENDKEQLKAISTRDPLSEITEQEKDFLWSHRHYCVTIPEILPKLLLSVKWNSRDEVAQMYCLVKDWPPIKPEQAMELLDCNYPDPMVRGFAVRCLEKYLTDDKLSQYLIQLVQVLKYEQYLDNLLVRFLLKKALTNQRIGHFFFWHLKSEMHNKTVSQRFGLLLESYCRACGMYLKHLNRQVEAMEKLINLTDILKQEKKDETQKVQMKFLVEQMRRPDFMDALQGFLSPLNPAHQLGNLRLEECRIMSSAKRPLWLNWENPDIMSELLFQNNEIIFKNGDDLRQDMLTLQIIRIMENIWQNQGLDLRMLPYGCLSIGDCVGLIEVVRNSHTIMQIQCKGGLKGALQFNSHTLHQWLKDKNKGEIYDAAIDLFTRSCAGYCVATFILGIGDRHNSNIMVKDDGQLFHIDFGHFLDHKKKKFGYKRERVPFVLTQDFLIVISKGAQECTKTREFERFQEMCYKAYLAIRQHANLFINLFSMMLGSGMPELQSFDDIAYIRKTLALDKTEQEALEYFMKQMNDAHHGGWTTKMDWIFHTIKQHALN
T1 sequence (P27986 whole entry partner, species assumed): as the sequence (P27986 whole entry partner) above
T3 sequence (P48736 whole entry): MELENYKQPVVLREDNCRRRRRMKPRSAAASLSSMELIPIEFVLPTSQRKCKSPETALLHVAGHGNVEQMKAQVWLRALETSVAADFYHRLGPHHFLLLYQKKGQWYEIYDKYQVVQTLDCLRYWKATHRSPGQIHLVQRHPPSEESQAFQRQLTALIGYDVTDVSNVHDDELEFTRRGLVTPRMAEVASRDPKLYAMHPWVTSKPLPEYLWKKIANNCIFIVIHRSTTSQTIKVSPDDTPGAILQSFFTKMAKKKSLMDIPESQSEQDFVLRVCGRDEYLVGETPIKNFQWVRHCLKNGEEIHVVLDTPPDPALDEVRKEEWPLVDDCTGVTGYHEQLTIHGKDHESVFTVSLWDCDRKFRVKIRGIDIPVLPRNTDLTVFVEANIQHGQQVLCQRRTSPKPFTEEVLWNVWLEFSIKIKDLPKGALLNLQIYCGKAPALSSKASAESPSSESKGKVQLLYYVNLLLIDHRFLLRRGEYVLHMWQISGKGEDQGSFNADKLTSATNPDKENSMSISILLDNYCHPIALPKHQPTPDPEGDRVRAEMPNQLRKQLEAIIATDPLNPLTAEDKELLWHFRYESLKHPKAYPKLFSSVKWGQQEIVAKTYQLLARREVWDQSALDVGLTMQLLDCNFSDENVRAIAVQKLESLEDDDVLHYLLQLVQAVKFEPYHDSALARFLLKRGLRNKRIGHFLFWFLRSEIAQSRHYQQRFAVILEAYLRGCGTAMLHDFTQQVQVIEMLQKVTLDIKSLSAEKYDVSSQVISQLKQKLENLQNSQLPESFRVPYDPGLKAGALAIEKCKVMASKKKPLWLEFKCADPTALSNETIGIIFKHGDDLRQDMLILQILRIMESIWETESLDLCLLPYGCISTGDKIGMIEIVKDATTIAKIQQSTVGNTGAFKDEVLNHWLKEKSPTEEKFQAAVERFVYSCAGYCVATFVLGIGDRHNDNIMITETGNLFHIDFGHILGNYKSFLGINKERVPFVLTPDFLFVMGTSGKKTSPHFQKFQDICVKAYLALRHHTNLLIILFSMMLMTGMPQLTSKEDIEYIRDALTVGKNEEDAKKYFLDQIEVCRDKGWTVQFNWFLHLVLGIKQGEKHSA

Take `COc1ccc(C(O)c2cc(-c3cnnc4c(F)c(N5CCOCC5)cc(F)c34)c(F)cc2Cl)nn1` (single isomer, unassigned) [Embodiment 19]: the IC50 against PI3K (p110α/p85α) is 483 nM; on PI3K (p110σ/p85α), 600 nM; against PI3K (p120γ), 9150 nM. Further, the “RTV (24th day)” value in assay [1] (setting [2]) is on record as 4.93 ± 0.42; in assay [1] (setting [3]) it was 4.08 ± 032; in assay [1] (40 mg/kg, BID, alone), 6.91 ± 0.18; in assay [1] (setting [4]), 2.28 ± 0.26; in assay [1] (setting [5]), 3.11 ± 0.18. Besides, the “T/C (%) (24th day)” value is given as 61.2% in assay [1] (setting [2]); 50.6% in assay [1] (setting [3]); 85.8% in assay [1] (40 mg/kg, BID, alone); 28.4% in assay [1] (setting [4]); 38.6% in assay [1] (setting [5]). For the same compound, the “TGI (%) (24th day)” value in assay [1] (setting [2]) is 46.5%; in assay [1] (setting [3]), 56.8%; in assay [1] (40 mg/kg, BID, alone) it was 16.8%; in assay [1] (setting [4]), 81.5%; in assay [1] (setting [5]) it was 70.5%. The “Tumor volume (mm^3) (0th day)” value in assay [1] (10 mg/kg, BID + etoposide 10 mg/kg, IP, 3-day administration, 4-day withdrawal) came out at 114 ± 9 mm^3; in assay [1] (20 mg/kg, QD + etoposide 10 mg/kg, IP, 3-day administration, 4-day withdrawal), 114 ± 7 mm^3; in assay [1] (40 mg/kg, BID, alone) it was 114 ± 7 mm^3; in assay [1] (40 mg/kg, PO, BID + etoposide 10 mg/kg, IP, 3-day administration, 4-day withdrawal), 114 ± 10 mm^3; in assay [1] (setting [6]), 114 ± 7 mm^3. Also, the “Tumor volume (mm^3) (24th day)” value in assay [1] (setting [2]) is 548 ± 44 mm^3; in assay [1] (setting [3]), 464 ± 41 mm^3; in assay [1] (40 mg/kg, BID, alone) it was 789 ± 49 mm^3; in assay [1] (setting [4]), 264 ± 37 mm^3; in assay [1] (setting [5]) it was 353 ± 33 mm^3.
The compound `COc1ccc([C@@H](O)c2cc(-c3nncc4cc(N5CCOCC5)ccc34)c(F)cc2Cl)nn1` [Embodiment M3814, reference compound] returned an IC50 against PI3K (p110α/p85α) of 42 nM. Moreover, on PI3K (p110σ/p85α), the IC50 is 14 nM. The same compound gave a half-maximal inhibitory concentration (IC50) against PI3K (p120γ) of 1220 nM. Besides, in assay [1] (setting [5]), the “RTV (24th day)” value is 3.47 ± 0.24, the “T/C (%) (24th day)” value is listed as 43.1%, the “TGI (%) (24th day)” value was found to be 66.1% and the “Tumor volume (mm^3) (24th day)” value is 389 ± 28 mm^3. In addition, the “Tumor volume (mm^3) (0th day)” value in assay [1] (setting [6]) is reported as 114 ± 8 mm^3. Further, in assay [1] (40 mg/kg, QD, alone), the “RTV (24th day)” value is reported as 6.77 + 0.45, the “T/C (%) (24th day)” value is recorded as 84.1%, the “TGI (%) (24th day)” value was determined as 19.8% and the “Tumor volume (mm^3) (0th day)” value turned out to be 114 ± 8 mm^3. Further, the “Tumor volume (mm^3) (24th day)” value in assay [1] (40 mg/kg, QD, alone) is 764 ± 59 mm^3.
